Assay results from patent US8541437B2, “Substituted 2,3,4,5-tetrahydro-1H-pyrido[4,3-b]indoles, methods for the production and use thereof” (Alla Chem, LLC, priority 2007, dated 2013).

Legend:
BALB/c male mice [1] = assay: Passive Avoidance of Mice in the Shuttle Chamber, scopolamine or MK-801 (Example 8); assay type: in vivo; conditions: scopolamine 0.3 mg/kg or MK-801 0.1 mg/kg
Procedure: A shuttle chamber (Ugo Basile, Italy) consisted of two sections was used. […] The sections were connected through a hole which could be shut with a vertical door. The floor was made of transverse metal bars on which DC current impulses could be fed. Experiments were carried out in aged male mice of BALB/c line weighing 20-24 grams.
On the first day of the experiment 30 minutes before training the mice were injected intraintestinally with physiological solution of scopolamine (0.3 mg/kg) or Scopolamine in combination with antagonists of 5-HT6 receptors 1.2.1(2)HCl, 1.2.1(4)HCl or 1.2.1(5)HCl. Each group consisted of at least 8 animals. The animals were placed in the light section, and the latent period of the first entry into the dark chamber was registered. Then the vertical door was shut and the animal was punished by 0.6 mA DC current for 3 seconds. After that the animal was returned to its living cage. In 22-24 hours the same animal was placed again in the light section of the shuttle chamber and the latent period of its first entry into the dark section, the total time of its stay in the light section and the number of entries into the dark section were registered. Each observation lasted for 5 minutes.
The experiment was carried out as in example 7. […]

BALB/c male mice [2] = assay: Mice Training in the Morris Water maze, memory disturbed by Scopolamine; assay type: in vivo; conditions: Scopolamine 0.6 mg/kg, 1.2.1(5)HCl 0.1 mg/kg, 1.2.1(1)HCl 1 mg/kg, Tacrine 3 mg/kg
Procedure: A round pool of 100 cm in diameter and sides height of 30 cm was used. It was filled with water at 20-22° C. A round ceramic platform of 14 cm height was placed in the pool. Animals's behavior was registered with an automated computer video system in combination with software package of movement analysis Any-maze (Stoelting Co., US). The experiments were carried out on aged male mice of BALB/c line weighing 20-24 grams. Before the experiments mice suitable for training were selected. This was done by placing the platform 1 cm above the water level and putting an animal on the platform for 20 seconds. Then the mouse was sunk into the water on the opposite side of the pool, allowed to find the platform and climb it for 60 seconds, where it was left for additional 20 seconds. After that the mouse was repeatedly immersed into the water on the opposite side of the pool and allowed to look for the platform. If it failed in finding the platform within 60 seconds the experimentator helped it to find the platform and climb it. If the mice couldn't find the platform itself in two consecutive attempts it was excluded from the experiment. During the next two days the platform was placed 0.5 cm lower the water level. Every day the mice were given four attempts for finding the platform within 60 seconds. The time interval between the attempts was 20 seconds, during which the mice stayed on the platform. Every day before the first attempt the mice was placed on the platform for 20 seconds. The time needed for finding and climbing the platform was registered. The animals were sunk into water in two different places on the side of the pool opposite to the platform. […] The animals of the control group were injected with physiological solution. At least 8 animals were used in each group. On the third day the platform was removed and each animal was placed one time into the pool for a period of 60 seconds. The time each mouse spent in the area where the platform had been located during the previous days was registered. […]

SHK male mice = assay: Novel object recognition by mice against the background of Scopolamine and MK-801; assay type: in vivo; conditions: Scopolamine 1 mg/kg, MK-801 0.2 mg/kg
Procedure: The experiments were carried out in a cross like maze which consisted of 4 peripheral arms connected with the central chamber by 7×7 cm holes. The maze was made of black plastic and its arms were of 14×14×14 cm size. The top cover of the maze was transparent.
A mouse was placed in the central chamber of the maze and allowed to investigate the environment. Criterion of entering an arm by the animal was detecting of all its paws inside the arm. The test was considered to be completed when the mouse had accomplished 12 transitions between the arms (having made 13 visits). The floor of the maze was cleaned after each animal.
The test was carried out twice with each mouse with 1 hour interval.
During the first test each arm of the maze contained a circular plastic cup of 3 cm height and 7 cm diameter. In the second test the cover of each two opposing arms was replaced by a conical glass flask of 7 cm height and 4 cm across the bottom. The time the mouse spent in each arm of the maze was registered and the index of novel object recognition was calculated as the ratio of the time the mouse spent in the arms with the flasks to the time it spent in all arms of the maze. If no preference was given to the arms with novel objects the index was 0.5.
The mice spend more time in the arm containing novel objects that results in an increasing of recognition index. Scopolamine (1 mg/kg) and MK-801 (0.2 mg/kg) disturbed learning (memory) that leads to the lowering of recognition index.

BALB/c male mice [3] = assay: Mice Behavior in the Elevated Plus Maze; assay type: in vivo
Description: Plus Maze”. The length of each arm in the labyrinth was 30 cm, the width was 5 cm, the height of the walls was 15 cm. Two opposite arms were closed from sides and end faces by transparent walls, the other two arms were lit and opened. A mouse was placed in the center of the maze and for the next five minutes the number of entries the open and closed sections and the time spent in each type of arms was registered. […]

5-HT6 receptor = target: T1, 5-HT6 receptor (Homo sapiens, UniProt P50406); assay: Inhibition of serotonin-stimulated intracellular cAMP in HEK 293 cells with expressed 5-HT6 receptor (LANCE cAMP); assay type: cell-based; conditions: serotonin-induced cAMP
T1 construct: expressed in transfected cells; host or cells: HEK 293
Procedure: The cells HEK 293 (kidney cells of a human embryon) with an artificially expressed 5-HT6 receptor, activation of which with serotonin results in intracellular cAMP increasing, were used. The concentration of intracellular cAMP was determined using a LANCE cAMP reagent (PerkinElmer) by the method described by the manufacturer: [http://las.perkinelmer.com/content/Manuals/MAN_LANCEcAMP384KitUser.pdf].
The effectiveness of the compounds was estimated on the basis of their ability to reduce the concentration of intracellular cAMP induced by serotonin, FIG. 1.

BALB/c male mice [4] = assay: Passive Avoidance of Mice in a Shuttle Chamber, memory disturbed by scopolamine (Example 7); assay type: in vivo; conditions: scopolamine 0.3 mg/kg
Procedure: A shuttle chamber (Ugo Basile, Italy) consisted of two sections was used. […] The sections were connected through a hole which could be shut with a vertical door. The floor was made of transverse metal bars on which DC current impulses could be fed. Experiments were carried out in aged male mice of BALB/c line weighing 20-24 grams. On the first day of the experiment 30 minutes before training the mice were injected intraintestinally with physiological solution of scopolamine (0.3 mg/kg) or Scopolamine in combination with antagonists of 5-HT6 receptors 1.2.1(2)HCl, 1.2.1(4)HCl or 1.2.1(5)HCl. Each group consisted of at least 8 animals. The animals were placed in the light section, and the latent period of the first entry into the dark chamber was registered. Then the vertical door was shut and the animal was punished by 0.6 mA DC current for 3 seconds. After that the animal was returned to its living cage. In 22-24 hours the same animal was placed again in the light section of the shuttle chamber and the latent period of its first entry into the dark section, the total time of its stay in the light section and the number of entries into the dark section were registered. Each observation lasted for 5 minutes. The experiment was carried out during the day time in an isolated laboratory using white noise at a level of about 70 decibel above the human hearing threshold. Scopolamine causes the disturbance of training (memory loss) which results in […] and a decreased number of entries into the dark section. The fact that 5-HT6 receptor antagonists can improve the learning ability that has been disturbed by scopolamine is regarded as evidence for their nootropic effect.

H1 histamine receptor = H1 histamine receptor (Homo sapiens, UniProt P35367); assay: Histamine-induced intracellular calcium in SK-N-SH cells (Fura 2 AM), Phase 1: block of calcium entry
Sequence of H1 histamine receptor (P35367 whole entry): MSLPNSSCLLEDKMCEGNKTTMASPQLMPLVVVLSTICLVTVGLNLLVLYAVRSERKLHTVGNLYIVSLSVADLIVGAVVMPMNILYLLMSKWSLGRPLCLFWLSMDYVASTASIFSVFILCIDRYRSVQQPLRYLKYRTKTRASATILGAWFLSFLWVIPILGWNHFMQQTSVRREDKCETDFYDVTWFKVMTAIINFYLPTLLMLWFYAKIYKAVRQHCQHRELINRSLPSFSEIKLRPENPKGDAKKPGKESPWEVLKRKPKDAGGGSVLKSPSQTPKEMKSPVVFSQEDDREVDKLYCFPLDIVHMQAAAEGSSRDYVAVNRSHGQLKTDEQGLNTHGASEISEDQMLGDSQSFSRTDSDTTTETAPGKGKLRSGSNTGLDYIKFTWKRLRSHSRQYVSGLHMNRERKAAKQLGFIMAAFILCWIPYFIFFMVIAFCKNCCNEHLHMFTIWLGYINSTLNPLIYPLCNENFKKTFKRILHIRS
Procedure: SK-N-SH Cells (ATCC, USA) were grown in DMEM medium (Invitrogen, USA) containing 10% fetal calf serum (FBS) and Penicillin-Streptomycin antibiotics, in CO2 incubator (5% CO2) until getting the cell density 1*10^5 cells/cm^2. The cells were removed from the surface of the flask with TrypLE Express reagent (Invitrogen, USA), then collected by means of centrifugation and resuspended in Hybridoma Serum Free Medium (HSFM, Sigma, USA) providing the concentration of 4*10^6 cells/ml. For measuring the intracellular concentration of calcium the cells were loaded with the calcium-sensitive fluorescent dye Fura 2 AM (Invitrogen, USA) by incubating their suspension with the dye for 30 minutes at room temperature. Again, the cells were collected by centrifugation, resuspended in HSFM; incubated for 15 minutes, recollected by centrifugation, washed twice with HSFM and resuspended in HSFM setting up the concentration 4*10^6 cells/ml. The cells were diluted with an operating buffer (NaCl 0.145 M, KCl 0.0054 M, NaH2PO4 0.001 M, MgSO4 0.0008 M, CaCl2 0.0018 M, HEPES 0.03 M, D-glucose 0.0112 M pH 7.4) to the concentration of 1*10^5 cells/ml in a measuring cell with a magnet stirrer, after that the fluorescence registration was carried out in the mode of two-wavelength excitement (340 and 380 nm, respectively) with an emission wavelength of 510 nm (F1 and F2, respectively). In 20 seconds after the beginning of registration, 10 mM of histamine water solution was added (a final concentration is 10 μM). […] In order to estimate the biological activity of the compounds, their serial DMSO dilutions were prepared and the correlation between the influence of the compound on the histamine induced calcium stream and its concentration was determined. The transforming fluorescent signal into calcium concentration was carried out by means of the equation built in the program Super Ion Probe (Shimadzu) software. For this purpose the maximum concentration of free calcium was determined by adding 0.1 mg/ml of digitonine (Sigma, USA) up to 0.1 mg/ml, while the zero calcium concentration—by adding of ethylene-diamin-tetraacetate (EDTA) up to 10 mM. Kinetic curves of lowering intracellular calcium concentration after the addition of the tested compound in the presence of histamine were calculated with a single-phase exponential model using the Prism 4 software (GraphPad Software, Inc.): [Ca]=[Ca]max*exp(−K*T)+[Ca]min where T is the time after the tested compound was added, [Ca]max and [Ca]min are the maximum (the peak value after the addition of histamine) and the minimum (the equilibrium level the curve approached after the addition of the tested compound) concentrations of intracellular calcium, K is the rate constant of intracellular calcium concentration lowering calculated by minimization of least square deviations.
The calculated rate constants of calcium concentration lowering (K) were used to determine their dependence on the tested compound concentration (C); and by means of the program Prism 4 using this dependence the values of EC50 (the concentration of the tested compound corresponding to half-maximum increasing of the rate constant of intracellular calcium concentration lowering) were determined by virtue of four parameter equation
[formula] where KBkg and Kmax are the rate constants of calcium concentration lowering without and in the presence of infinitely large concentration of the tested compound, respectively; N is Hill's coefficient.

T1 sequence (P50406 whole entry): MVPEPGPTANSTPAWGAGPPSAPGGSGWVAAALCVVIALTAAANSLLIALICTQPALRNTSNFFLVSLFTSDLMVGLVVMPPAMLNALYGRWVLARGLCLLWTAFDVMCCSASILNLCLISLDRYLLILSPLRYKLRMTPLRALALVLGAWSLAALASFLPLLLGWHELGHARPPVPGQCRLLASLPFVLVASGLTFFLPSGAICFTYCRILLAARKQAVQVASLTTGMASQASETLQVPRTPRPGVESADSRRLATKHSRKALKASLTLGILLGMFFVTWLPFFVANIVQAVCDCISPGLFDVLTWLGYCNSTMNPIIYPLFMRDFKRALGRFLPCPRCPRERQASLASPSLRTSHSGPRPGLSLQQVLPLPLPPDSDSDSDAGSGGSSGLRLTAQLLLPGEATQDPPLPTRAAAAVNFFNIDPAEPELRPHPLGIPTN

Row | SMILES | nootropic action (passive avoidance, FIGS. 5-10) (BALB/c male mice [1]) | improvement of mice's training (Morris water maze, FIG. 11-12) (BALB/c male mice [2]) | nootropic action (novel object recognition, FIG. 13-14) (SHK male mice) | tranquilizing action (elevated plus maze, FIG. 19-21) (BALB/c male mice [3]) | IC50 (5-HT6 receptor) [µM] | nootropic action (passive avoidance, FIGS. 2-4) (BALB/c male mice [4]) | EC50 (H1 histamine receptor) [µM]
1 | Cc1ccc2c(c1)c1c(n2CCc2ccccc2)CCN(C)C1.Cl [1.2.1(1)HCl, 2,8-dimethyl-5-(2-phenethyl)-2,3,4,5-tetrahydro-1H-pyrido[4,3-b]indole hydrochloride] | highest activity | statistically significant improvement of mice's training | nootropic action, the level of which is the most prominent | exhibit a tranquilizing action, which is the most prominent | – | – | –
2 | Cc1ccc2c(c1)c1c(n2CCc2ccncc2)CCN(C)C1.Cl [1.2.1(2)HCl, 2,8-dimethyl-5-[2-(pyridin-4-yl)ethyl]-2,3,4,5-tetrahydro-1H-pyrido[4,3-b]indole hydrochloride] | – | – | – | – | 0.43 | exhibit a nootropic action which is the most prominent | 0.16
3 | Cc1ccc2c(c1)c1c(n2CCc2ccccn2)CCN(C)C1.Cl [1.2.1(4)HCl, 2,8-dimethyl-5-[2-(pyridin-2-yl)ethyl]-2,3,4,5-tetrahydro-1H-pyrido[4,3-b]indole hydrochloride] | – | – | – | – | – | exhibit a nootropic action which is the most prominent | 0.5
4 | Cc1ccc2c(c1)c1c(n2CCc2ccc(C)nc2)CCN(C)C1.Cl [1.2.1(5)HCl, 2,8-dimethyl-5-[2-(6-methylpyridin-3-yl)ethyl]-2,3,4,5-tetrahydro-1H-pyrido[4,3-b]indole hydrochloride, reference compound] | act as nootropic | statistically significant improvement of mice's training | nootropic action | exhibit a tranquilizing action | 4.4 | exhibit a nootropic action | 0.16
5 | O=C1CC2(CCCC2)CC(=O)N1CCCCN1CCN(c2ncccn2)CC1 [Buspiron] | – | – | – | exhibit a tranquilizing action | – | – | –
6 | Nc1c2c(nc3ccccc13)CCCC2 [Tacrine] | – | statistically significant improvement of mice's training | – | – | – | – | –
